According to US11945826B2, “Hydroxypyridoxazepines as NRF2 activators” (GLAXOSMITHKLINE INTELLECTUAL PROPERTY DEVELOPMENT LIMITED, priority 2019, dated 2024):

System: Nrf2 (NQO1 activity in BEAS-2B cells)
Experiment: BEAS-2B NQO1 MTT Assay
Format: cell-based
Conditions: Homo sapiens, 48 hours, NQO1 specific activity induction, read-out: EC50
Text: NAD(P)H:quinone oxidoreductase 1 (NQO1), also called DT diaphorase, is a homodimeric FAD-containing enzyme that catalyzes obligatory NAD(P)H-dependent two-electron reductions of quinones and protects cells against the toxic and neoplastic effects of free radicals and reactive oxygen species arising from one-electron reductions. The transcription of NQO1 is finely regulated by Nrf2, and thus NQO1 activity is a good marker for Nrf2 activation. On day one, frozen BEAS-2B cells (ATCC) were thawed in a water bath, counted, and re-suspended at a concentration of 250,000 cells/mL. Fifty microliters of cells were plated in 384 well black clear-bottomed plates. Plates were incubated at 37° C., 5% CO2 overnight. On day two, plates were centrifuged and 50 nL of compound or controls were added to the cells. Plates were then incubated at 37° C., 5% CO2 for 48 hours. On day four, medium was aspirated from the plate and crude cell lysates were made by adding 13 μL of 1× Cell Signalling Technologies lysis buffer with 1 Complete, Mini, EDTA-free Protease Inhibitor Tablet (Roche) for each 10 mL of lysis buffer. After lysis plates were incubated for 20 minutes at room temperature. Two microliters of lysate were removed for use in Cell Titer Glo assay (Promega) and MTT cocktail was prepared (Prochaska et. al. 1998) for measurement of NQO1 activity. Fifty microliters of MTT cocktail was added to each well, plate was centrifuged, and analyzed on an Envision plate reader (Perkin Elmer) using Absorbance 570 nm label for 30 minutes. Product formation was measured kinetically and the pEC50 of NQO1 specific activity induction was calculated by plotting the change in absorbance (Delta OD/min) versus the log of compound concentration followed by 3-parameter fitting.
EC50s<1 nM (+++++), EC50s 1 nM-10 nM (++++), EC50s 10 nM-100 nM (+++), EC50s 100 nM-1 μM (++), EC50s 1 μM-10 μM (+).

Question: Which EC50 does the source give for Cc1ccc([C@@H](CC(=O)O)c2ccc3c(nnn3C)c2C)cc1CN1Cc2nc(O)ccc2O[C@@H](C(C)C)C1 [Example 2, (R)-3-(1,4-dimethyl-1H-benzo[d][1,2,3]triazol-5-yl)-3-(3-(((S)-7-hydroxy-2-isopropyl-2,3-dihydropyrido[2,3-f][1,4]oxazepin-4(5H)-yl)methyl)-4-methylphenyl)propanoic acid] here?
Answer: The EC50 was 0.1 to 1 µM.

Question: Cc1ccc([C@@H](CC(=O)O)c2ccc3c(nnn3C)c2C)cc1CN1Cc2nc(O)ccc2O[C@H](C(C)C)C1 [Example 3, (R)-3-(1,4-dimethyl-1H-benzo[d][1,2,3]triazol-5-yl)-3-(3-(((R)-7-hydroxy-2-isopropyl-2,3-dihydropyrido[2,3-f][1,4]oxazepin-4(5H)-yl)methyl)-4-methylphenyl)propanoic acid] was tested. Which EC50 did it give?
Answer: Its EC50 is 0.001 to 0.01 µM.

Question: Cc1ccc([C@@H](CC(=O)O)c2ccc3c(nnn3C)c2C)cc1CN1Cc2nc(O)ccc2O[C@H](C)C1 [Example 4, (R)-3-(1,4-dimethyl-1H-benzo[d][1,2,3]triazol-5-yl)-3-(3-(((R)-7-hydroxy-2-methyl-2,3-dihydropyrido[2,3-f][1,4]oxazepin-4(5H)-yl)methyl)-4-methylphenyl)propanoic acid] was tested. Which EC50 did it give?
Answer: Its EC50 is 0.01 to 0.1 µM.

Question: How did the EC50 turn out when Cc1ccc([C@@H](CC(=O)O)c2ccc3c(nnn3C)c2C)cc1CN1Cc2nc(O)ccc2OC(C)(C)C1 [Example 5, (R)-3-(1,4-dimethyl-1H-benzo[d][1,2,3]triazol-5-yl)-3-(3-((7-hydroxy-2,2-dimethyl-2,3-dihydropyrido[2,3-f][1,4]oxazepin-4(5H)-yl)methyl)-4-methylphenyl)propanoic acid] was run?
Answer: Its EC50 is 0.01 to 0.1 µM.

Question: Which EC50 does the source give for Cc1ccc([C@@H](CC(=O)O)c2ccc3c(nnn3C)c2C)cc1CN1Cc2nc(O)ccc2O[C@H](C(F)(F)F)C1 [Example 6, (R)-3-(1,4-dimethyl-1H-benzo[d][1,2,3]triazol-5-yl)-3-(3-(((S)-7-hydroxy-2-(trifluoromethyl)-2,3-dihydropyrido[2,3-f][1,4]oxazepin-4(5H)-yl)methyl)-4-methylphenyl)propanoic acidacid] here?
Answer: The EC50 was 0.01 to 0.1 µM.

Question: Which EC50 does the source give for CC[C@H]1CN(Cc2cc([C@@H](CC(=O)O)c3ccc4c(nnn4C)c3C)ccc2C)Cc2nc(O)ccc2O1 [Example 7, (R)-3-(1,4-dimethyl-1H-benzo[d][1,2,3]triazol-5-yl)-3-(3-(((S)-2-ethyl-7-hydroxy-2,3-dihydropyrido[2,3-f][1,4]oxazepin-4(5H)-yl)methyl)-4-methylphenyl)propanoic acid] here?
Answer: Its EC50 is 0.1 to 1 µM.

Question: Cc1ccc([C@H](CC(=O)O)c2ccc3c(nnn3C)c2C)cc1CN1Cc2nc(O)ccc2O[C@H](C(C)C)C1 [Example 8, (S)-3-(1,4-dimethyl-1H-benzo[d][1,2,3]triazol-5-yl)-3-(3-(((R)-7-hydroxy-2-isopropyl-2,3-dihydropyrido[2,3-f][1,4]oxazepin-4(5H)-yl)methyl)-4-methylphenyl)propanoic acid] was tested. Which EC50 did it give?
Answer: Its EC50 is 0.01 to 0.1 µM.

Question: Cc1ccc([C@H](CC(=O)O)c2ccc3c(nnn3C)c2C)cc1CN1Cc2nc(O)ccc2O[C@@H](C(C)C)C1 [Example 9, (S)-3-(1,4-dimethyl-1H-benzo[d][1,2,3]triazol-5-yl)-3-(3-(((S)-7-hydroxy-2-isopropyl-2,3-dihydropyrido[2,3-f][1,4]oxazepin-4(5H)-yl)methyl)-4-methylphenyl)propanoic acid] was tested. Which EC50 did it give?
Answer: Its EC50 is 0.1 to 1 µM.

Question: For CC[C@@H]1CN(Cc2cc([C@H](CC(=O)O)c3ccc4c(nnn4C)c3C)ccc2C)Cc2nc(O)ccc2O1 [Example 10, (S)-3-(1,4-dimethyl-1H-benzo[d][1,2,3]triazol-5-yl)-3-(3-(((R)-2-ethyl-7-hydroxy-2,3-dihydropyrido[2,3-f][1,4]oxazepin-4(5H)-yl)methyl)-4-methylphenyl)propanoic acid], which EC50 is on record?
Answer: Its EC50 is 0.01 to 0.1 µM.

Question: For Cc1ccc([C@H](CC(=O)O)c2ccc3c(nnn3C)c2C)cc1CN1Cc2nc(O)ccc2OC(C)(C)C1 [Example 11, (S)-3-(1,4-dimethyl-1H-benzo[d][1,2,3]triazol-5-yl)-3-(3-((7-hydroxy-2,2-dimethyl-2,3-dihydropyrido[2,3-f][1,4]oxazepin-4(5H)-yl)methyl)-4-methylphenyl)propanoic acid], which EC50 is on record?
Answer: The EC50 was 0.1 to 1 µM.

Question: With CC[C@H]1CN(Cc2cc([C@H](CC(=O)O)c3ccc4c(nnn4C)c3C)ccc2C)Cc2nc(O)ccc2O1 [Example 12, (S)-3-(1,4-dimethyl-1H-benzo[d][1,2,3]triazol-5-yl)-3-(3-(((S)-2-ethyl-7-hydroxy-2,3-dihydropyrido[2,3-f][1,4]oxazepin-4(5H)-yl)methyl)-4-methylphenyl)propanoic acid] as the compound, how does the EC50 read?
Answer: The EC50 was 1 to 10 µM.

Question: Which EC50 does the source give for CC[C@@H]1CN(Cc2cc([C@@H](c3ccc4c(nnn4C)c3C)C(C)(C)C(=O)O)ccc2C)Cc2nc(O)ccc2O1 [Example 13, (S)-3-(1,4-dimethyl-1H-benzo[d][1,2,3]triazol-5-yl)-3-(3-(((R)-2-ethyl-7-hydroxy-2,3-dihydropyrido[2,3-f][1,4]oxazepin-4(5H)-yl)methyl)-4-methylphenyl)-2,2-dimethyl propanoic acid] here?
Answer: Its EC50 is under 0.001 µM.

Question: With Cc1ccc([C@@H](c2ccc3c(nnn3C)c2C)C(C)(C)C(=O)O)cc1CN1Cc2nc(O)ccc2O[C@H](C)C1 [Example 14, (S)-3-(1,4-dimethyl-1H-benzo[d][1,2,3]triazol-5-yl)-3-(3-(((R)-7-hydroxy-2-methyl-2,3-dihydropyrido[2,3-f][1,4]oxazepin-4(5H)-yl)methyl)-4-methylphenyl)-2,2-dimethylpropanoic acid] as the compound, how does the EC50 read?
Answer: Its EC50 is 0.001 to 0.01 µM.

Question: For Cc1ccc([C@@H](c2ccc3c(nnn3C)c2C)C(C)(C)C(=O)O)cc1CN1Cc2nc(O)ccc2O[C@H](C(C)C)C1 [Example 15, (S)-3-(1,4-dimethyl-1H-benzo[d][1,2,3]triazol-5-yl)-3-(3-(((R)-7-hydroxy-2-isopropyl-2,3-dihydropyrido[2,3-f][1,4]oxazepin-4(5H)-yl)methyl)-4-methylphenyl)-2,2-dimethylpropanoic acid], which EC50 is on record?
Answer: Its EC50 is under 0.001 µM.

Question: For Cc1ccc([C@@H](c2ccc3c(nnn3C)c2C)C(C)(C)C(=O)O)cc1CN1Cc2nc(O)ccc2O[C@@H](C(C)C)C1 [Example 16, (S)-3-(1,4-dimethyl-1H-benzo[d][1,2,3]triazol-5-yl)-3-(3-(((S)-7-hydroxy-2-isopropyl-2,3-dihydropyrido[2,3-f][1,4]oxazepin-4(5H)-yl)methyl)-4-methylphenyl)-2,2-dimethylpropanoic acid], which EC50 is on record?
Answer: The EC50 was 0.001 to 0.01 µM.

Question: Which EC50 does the source give for Cc1ccc([C@@H](c2ccc3c(nnn3C)c2C)C(C)(C)C(=O)O)cc1CN1Cc2nc(O)ccc2OC(C)(C)C1 [Example 17, (S)-3-(1,4-dimethyl-1H-benzo[d][1,2,3]triazol-5-yl)-3-(3-((7-hydroxy-2,2-dimethyl-2,3-dihydropyrido[2,3-f][1,4]oxazepin-4(5H)-yl)methyl)-4-methylphenyl)-2,2-dimethylpropanoic acid] here?
Answer: The EC50 was 0.001 to 0.01 µM.

Question: CC[C@H]1CN(Cc2cc([C@@H](c3ccc4c(nnn4C)c3C)C(C)(C)C(=O)O)ccc2C)Cc2nc(O)ccc2O1 [Example 18, (S)-3-(1,4-dimethyl-1H-benzo[d][1,2,3]triazol-5-yl)-3-(3-(((S)-2-ethyl-7-hydroxy-2,3-dihydropyrido[2,3-f][1,4]oxazepin-4(5H)-yl)methyl)-4-methylphenyl)-2,2-dimethylpropanoic acid] was tested. Which EC50 did it give?
Answer: Its EC50 is 0.001 to 0.01 µM.

Question: Which EC50 does the source give for Cc1ccc([C@@H](c2ccc3c(nnn3C)c2C)C(C)(C)C(=O)O)cc1CN1Cc2nc(O)ccc2O[C@H](C(F)(F)F)C1 [Example 19, (S)-3-(1,4-dimethyl-1H-benzo[d][1,2,3]triazol-5-yl)-3-(3-(((S)-7-hydroxy-2-(trifluoromethyl)-2,3-dihydropyrido[2,3-f][1,4]oxazepin-4(5H)-yl)methyl)-4-methylphenyl)-2,2-dimethylpropanoic acid] here?
Answer: Its EC50 is under 0.001 µM.

Question: Which EC50 does the source give for Cc1ccc([C@@H](CC(=O)O)c2ccc3c(nnn3C)c2C)cc1CN1Cc2nc(O)ccc2O[C@@H](C(F)(F)F)C1 [Example 20, (R)-3-(1,4-dimethyl-1H-benzo[d][1,2,3]triazol-5-yl)-3-(3-(((R)-7-hydroxy-2-(trifluoromethyl)-2,3-dihydropyrido[2,3-f][1,4]oxazepin-4(5H)-yl)methyl)-4-methylphenyl)propanoic acid] here?
Answer: Its EC50 is 1 to 10 µM.

Question: Which EC50 does the source give for Cc1ccc([C@@H](c2ccc3c(nnn3C)c2C)C(C)(C)C(=O)O)cc1CN1Cc2nc(O)ccc2O[C@@H](C(F)(F)F)C1 [Example 21, (S)-3-(1,4-dimethyl-1H-benzo[d][1,2,3]triazol-5-yl)-3-(3-(((R)-7-hydroxy-2-(trifluoromethyl)-2,3-dihydropyrido[2,3-f][1,4]oxazepin-4(5H)-yl)methyl)-4-methylphenyl)-2,2-dimethylpropanoic acid] here?
Answer: Its EC50 is 0.01 to 0.1 µM.

Question: How did the EC50 turn out when CC[C@@H]1CN(Cc2cc([C@@H](CC(=O)O)c3ccc4c(nnn4C)c3C)ccc2C)Cc2nc(O)c(F)cc2O1 [Example 22, (R)-3-(1,4-dimethyl-1H-benzo[d][1,2,3]triazol-5-yl)-3-(3-(((R)-2-ethyl-8-fluoro-7-hydroxy-2,3-dihydropyrido[2,3-f][1,4]oxazepin-4(5H)-yl)methyl)-4-methylphenyl)propanoic acid] was run?
Answer: Its EC50 is 0.001 to 0.01 µM.
